From PubChem BioAssay AID2060502 (Molecular Pharmacology Branch, DTP, NCI, 2025)

System: 885724-159-R-J1-PDC complex spheroid viability
Experiment: Anticancer human tumor 885724-159-R-J1-PDC patient-derived pancreatic adenocarcinoma cell line growth inhibition [GQUAD]
Settings: for IC50: curve of first compound; for viability, T/C: stronger effect = lower value
Outline: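 Tumor cells were grown as complex spheroids with HUVEC endothelial cells and mesenchymal stem cells as stroma. G-quadruplex stabilizers were combined with targeted agents over half-log dilutions from near the clinical Cmax, or from 10 microM.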

[1] = second compound 0.0316 µM, first compound 0.0316 µM
[2] = second compound 0.0316 µM, first compound 0.1 µM
[3] = second compound 0.0316 µM, first compound 0.316 µM
[4] = second compound 0.0316 µM, first compound 1 µM
[5] = second compound 0.0316 µM, first compound 3.16 µM
[6] = second compound 0.0316 µM, first compound 10 µM
[7] = second compound 0.1 µM, first compound 0.0316 µM
[8] = second compound 0.1 µM, first compound 0.1 µM
[9] = second compound 0.1 µM, first compound 0.316 µM
[10] = second compound 0.1 µM, first compound 1 µM
[11] = second compound 0.1 µM, first compound 3.16 µM
[12] = second compound 0.1 µM, first compound 10 µM
[13] = second compound 0.316 µM, first compound 0.0316 µM
[14] = second compound 0.316 µM, first compound 0.1 µM
[15] = second compound 0.316 µM, first compound 0.316 µM
[16] = second compound 0.316 µM, first compound 1 µM
[17] = second compound 0.316 µM, first compound 3.16 µM
[18] = second compound 0.316 µM, first compound 10 µM
[19] = second compound 1 µM, first compound 0.0316 µM
[20] = second compound 1 µM, first compound 0.1 µM
[21] = second compound 1 µM, first compound 0.316 µM
[22] = second compound 1 µM, first compound 1 µM
[23] = second compound 1 µM, first compound 3.16 µM
[24] = second compound 1 µM, first compound 10 µM
[25] = second compound 3.16 µM, first compound 0.0316 µM
[26] = second compound 3.16 µM, first compound 0.1 µM
[27] = second compound 3.16 µM, first compound 0.316 µM
[28] = second compound 3.16 µM, first compound 1 µM
[29] = second compound 3.16 µM, first compound 3.16 µM
[30] = second compound 3.16 µM, first compound 10 µM
[31] = second compound 10 µM, first compound 0.0316 µM
[32] = second compound 10 µM, first compound 0.1 µM
[33] = second compound 10 µM, first compound 0.316 µM
[34] = second compound 10 µM, first compound 1 µM
[35] = second compound 10 µM, first compound 3.16 µM
[36] = second compound 10 µM, first compound 10 µM
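Further: spheroids exposed to agents for seven days before readout.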
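Wherever viability, T/C is given: percent of vehicle control viability where 100% = DMSO wells.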

COc1cccc2c1C(=O)c1c(O)c3c(c(O)c1C2=O)CC(O)(C(=O)CO)CC3OC1CC(N)C(O)C(C)O1 (stereo not drawn) + Cc1cnc(CNC(=O)c2c(=O)c3ccc(N4CCCN(C)CC4)nc3n3c2sc2ccccc23)cn1
IC50 (second compound 0.0316 µM): 2420 nM
IC50 (second compound 0.1 µM): 2030 nM
IC50 (second compound 0.316 µM): 1780 nM
IC50 (second compound 1 µM): 1340 nM
IC50 (second compound 3.16 µM): 1050 nM
IC50 (second compound 10 µM): 889 nM
viability, T/C [1]: 118%
viability, T/C [2]: 99.5%
viability, T/C [3]: 97.7%
viability, T/C [4]: 79.2%
viability, T/C [5]: 39.8%
viability, T/C [6]: 3.19%
viability, T/C [7]: 106%
viability, T/C [8]: 109%
viability, T/C [9]: 99%
viability, T/C [10]: 83.1%
viability, T/C [11]: 29.6%
viability, T/C [12]: 2.62%
viability, T/C [13]: 96.9%
viability, T/C [14]: 93%
viability, T/C [15]: 89.2%
viability, T/C [16]: 62.6%
viability, T/C [17]: 35.8%
viability, T/C [18]: 4.79%
viability, T/C [19]: 89.7%
viability, T/C [20]: 88.8%
viability, T/C [21]: 85.2%
viability, T/C [22]: 57.2%
viability, T/C [23]: 24.1%
viability, T/C [24]: 2.16%
viability, T/C [25]: 88.1%
viability, T/C [26]: 84.8%
viability, T/C [27]: 73.2%
viability, T/C [28]: 53.6%
viability, T/C [29]: 17.4%
viability, T/C [30]: 0.96%
viability, T/C [31]: 72.2%
viability, T/C [32]: 80.4%
viability, T/C [33]: 74%
viability, T/C [34]: 46.4%
viability, T/C [35]: 12.4%
viability, T/C [36]: 0.74%

O=C(c1cc(Cc2n[nH]c(=O)c3ccccc23)ccc1F)N1CCN(C(=O)C2CC2)CC1 + Cc1cnc(CNC(=O)c2c(=O)c3ccc(N4CCCN(C)CC4)nc3n3c2sc2ccccc23)cn1
IC50 (second compound 0.0316 µM): > 10000 nM
IC50 (second compound 0.1 µM): > 10000 nM
IC50 (second compound 0.316 µM): > 10000 nM
IC50 (second compound 1 µM): > 10000 nM
IC50 (second compound 3.16 µM): > 10000 nM
IC50 (second compound 10 µM): > 10000 nM
viability, T/C [1]: 97.6%
viability, T/C [2]: 96.7%
viability, T/C [3]: 98.6%
viability, T/C [4]: 99.2%
viability, T/C [5]: 87.3%
viability, T/C [6]: 90.8%
viability, T/C [7]: 115%
viability, T/C [8]: 109%
viability, T/C [9]: 105%
viability, T/C [10]: 90.6%
viability, T/C [11]: 84.6%
viability, T/C [12]: 83.5%
viability, T/C [13]: 88%
viability, T/C [14]: 93.7%
viability, T/C [15]: 88.9%
viability, T/C [16]: 85.5%
viability, T/C [17]: 85.5%
viability, T/C [18]: 77%
viability, T/C [19]: 87.8%
viability, T/C [20]: 83.2%
viability, T/C [21]: 78.8%
viability, T/C [22]: 77.7%
viability, T/C [23]: 87%
viability, T/C [24]: 65.3%
viability, T/C [25]: 78.2%
viability, T/C [26]: 80.3%
viability, T/C [27]: 78.2%
viability, T/C [28]: 74%
viability, T/C [29]: 76.2%
viability, T/C [30]: 57.4%
viability, T/C [31]: 71.7%
viability, T/C [32]: 70.7%
viability, T/C [33]: 70.9%
viability, T/C [34]: 73.1%
viability, T/C [35]: 64.8%
viability, T/C [36]: 66.2%

C#Cc1c(F)ccc2cc(O)cc(-c3ncc4c(N5CC6CCC(C5)N6)nc(OCC56CCCN5CC(F)C6)nc4c3F)c12 (stereo not drawn) + Cc1cnc(CNC(=O)c2c(=O)c3ccc(N4CCCN(C)CC4)nc3n3c2sc2ccccc23)cn1
IC50 (second compound 0.0316 µM): 6010 nM
IC50 (second compound 0.1 µM): 6880 nM
IC50 (second compound 0.316 µM): 6190 nM
IC50 (second compound 1 µM): 4500 nM
IC50 (second compound 3.16 µM): 2330 nM
IC50 (second compound 10 µM): 1280 nM
viability, T/C [1]: 91.6%
viability, T/C [2]: 120%
viability, T/C [3]: 117%
viability, T/C [4]: 103%
viability, T/C [5]: 67%
viability, T/C [6]: 36.6%
viability, T/C [7]: 106%
viability, T/C [8]: 110%
viability, T/C [9]: 100%
viability, T/C [10]: 107%
viability, T/C [11]: 71.4%
viability, T/C [12]: 39.7%
viability, T/C [13]: 110%
viability, T/C [14]: 100%
viability, T/C [15]: 90.8%
viability, T/C [16]: 94.5%
viability, T/C [17]: 69.5%
viability, T/C [18]: 35%
viability, T/C [19]: 92.8%
viability, T/C [20]: 81.3%
viability, T/C [21]: 84.2%
viability, T/C [22]: 75.3%
viability, T/C [23]: 59.9%
viability, T/C [24]: 28.4%
viability, T/C [25]: 77.3%
viability, T/C [26]: 70.2%
viability, T/C [27]: 70%
viability, T/C [28]: 62.9%
viability, T/C [29]: 45.3%
viability, T/C [30]: 19.1%
viability, T/C [31]: 61.5%
viability, T/C [32]: 62.7%
viability, T/C [33]: 54.6%
viability, T/C [34]: 55.8%
viability, T/C [35]: 36.6%
viability, T/C [36]: 1.29%

Cn1ncnc1[C@H]1c2n[nH]c(=O)c3cc(F)cc(c23)N[C@@H]1c1ccc(F)cc1 + Cc1cnc(CNC(=O)c2c(=O)c3ccc(N4CCCN(C)CC4)nc3n3c2sc2ccccc23)cn1
IC50 (second compound 0.0316 µM): > 316 nM
IC50 (second compound 0.1 µM): > 316 nM
IC50 (second compound 0.316 µM): > 316 nM
IC50 (second compound 1 µM): > 316 nM
IC50 (second compound 3.16 µM): > 316 nM
IC50 (second compound 10 µM): > 316 nM
viability, T/C (second compound 0.0316 µM, first compound 0.000999 µM): 90.3%
viability, T/C (second compound 0.0316 µM, first compound 0.00316 µM): 107%
viability, T/C (second compound 0.0316 µM, first compound 0.00999 µM): 96.3%
viability, T/C [1]: 108%
viability, T/C (second compound 0.0316 µM, first compound 0.0999 µM): 90.3%
viability, T/C [3]: 92.7%
viability, T/C (second compound 0.1 µM, first compound 0.000999 µM): 117%
viability, T/C (second compound 0.1 µM, first compound 0.00316 µM): 115%
viability, T/C (second compound 0.1 µM, first compound 0.00999 µM): 97.1%
viability, T/C [7]: 100%
viability, T/C (second compound 0.1 µM, first compound 0.0999 µM): 98.8%
viability, T/C [9]: 92.2%
viability, T/C (second compound 0.316 µM, first compound 0.000999 µM): 90.1%
viability, T/C (second compound 0.316 µM, first compound 0.00316 µM): 94.5%
viability, T/C (second compound 0.316 µM, first compound 0.00999 µM): 104%
viability, T/C [13]: 96.3%
viability, T/C (second compound 0.316 µM, first compound 0.0999 µM): 96.6%
viability, T/C [15]: 98.7%
viability, T/C (second compound 1 µM, first compound 0.000999 µM): 86.8%
viability, T/C (second compound 1 µM, first compound 0.00316 µM): 85.6%
viability, T/C (second compound 1 µM, first compound 0.00999 µM): 82.3%
viability, T/C [19]: 79.2%
viability, T/C (second compound 1 µM, first compound 0.0999 µM): 87.4%
viability, T/C [21]: 84.2%
viability, T/C (second compound 3.16 µM, first compound 0.000999 µM): 79.8%
viability, T/C (second compound 3.16 µM, first compound 0.00316 µM): 76.1%
viability, T/C (second compound 3.16 µM, first compound 0.00999 µM): 78.9%
viability, T/C [25]: 76.1%
viability, T/C (second compound 3.16 µM, first compound 0.0999 µM): 81%
viability, T/C [27]: 72.6%
viability, T/C (second compound 10 µM, first compound 0.000999 µM): 82.4%
viability, T/C (second compound 10 µM, first compound 0.00316 µM): 88.2%
viability, T/C (second compound 10 µM, first compound 0.00999 µM): 83%
viability, T/C [31]: 89.4%
viability, T/C (second compound 10 µM, first compound 0.0999 µM): 105%
viability, T/C [33]: 94.6%
